The values below come from paper PMC6893898, “Receptor Interaction Profiles of 4-Alkoxy-Substituted 2,5-Dimethoxyphenethylamines and Related Amphetamines” (Frontiers in Pharmacology, 2019).

One test has as its target hSERT (Homo sapiens, UniProt P31645). The experiment in a line: Radioligand binding, SERT ([3H]citalopram). Details: expressed in transfected cells; host or cells: HEK 293 (membrane preparation).
A further test deals with T1, dopaminergic D2 receptor (Homo sapiens, UniProt P14416).
T1 construct: expressed in transfected cells; host or cells: HEK 293 (membrane preparation)
T1 sequence (P14416 whole entry): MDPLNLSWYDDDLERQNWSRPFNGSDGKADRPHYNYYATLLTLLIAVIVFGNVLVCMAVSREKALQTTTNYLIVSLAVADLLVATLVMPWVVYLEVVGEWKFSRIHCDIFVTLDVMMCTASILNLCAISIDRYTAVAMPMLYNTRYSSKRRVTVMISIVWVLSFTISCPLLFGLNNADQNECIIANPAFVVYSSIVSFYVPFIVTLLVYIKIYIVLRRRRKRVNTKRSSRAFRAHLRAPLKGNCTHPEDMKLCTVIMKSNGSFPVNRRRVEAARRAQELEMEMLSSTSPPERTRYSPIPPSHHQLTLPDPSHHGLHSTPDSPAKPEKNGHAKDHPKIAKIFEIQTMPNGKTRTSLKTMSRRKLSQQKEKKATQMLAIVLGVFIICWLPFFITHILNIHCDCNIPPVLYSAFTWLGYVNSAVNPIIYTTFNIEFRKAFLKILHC
The experiment in a line: Radioligand binding, dopaminergic D2 receptor ([3H]spiperone).

Another test has as its target T2, mouse TAAR1 (Mus musculus, UniProt Q923Y8).
T2 construct: expressed in transfected cells; host or cells: HEK 293 (membrane preparation)
The experiment in a line: Radioligand binding, mouse TAAR1 ([3H]RO5166017).

The target of another test is hDAT (Homo sapiens, UniProt Q01959). The experiment in a line: Radioligand binding, DAT ([3H]WIN35,428). Details: expressed in transfected cells; host or cells: HEK 293 (membrane preparation).
Sequence of hDAT (Q01959 whole entry): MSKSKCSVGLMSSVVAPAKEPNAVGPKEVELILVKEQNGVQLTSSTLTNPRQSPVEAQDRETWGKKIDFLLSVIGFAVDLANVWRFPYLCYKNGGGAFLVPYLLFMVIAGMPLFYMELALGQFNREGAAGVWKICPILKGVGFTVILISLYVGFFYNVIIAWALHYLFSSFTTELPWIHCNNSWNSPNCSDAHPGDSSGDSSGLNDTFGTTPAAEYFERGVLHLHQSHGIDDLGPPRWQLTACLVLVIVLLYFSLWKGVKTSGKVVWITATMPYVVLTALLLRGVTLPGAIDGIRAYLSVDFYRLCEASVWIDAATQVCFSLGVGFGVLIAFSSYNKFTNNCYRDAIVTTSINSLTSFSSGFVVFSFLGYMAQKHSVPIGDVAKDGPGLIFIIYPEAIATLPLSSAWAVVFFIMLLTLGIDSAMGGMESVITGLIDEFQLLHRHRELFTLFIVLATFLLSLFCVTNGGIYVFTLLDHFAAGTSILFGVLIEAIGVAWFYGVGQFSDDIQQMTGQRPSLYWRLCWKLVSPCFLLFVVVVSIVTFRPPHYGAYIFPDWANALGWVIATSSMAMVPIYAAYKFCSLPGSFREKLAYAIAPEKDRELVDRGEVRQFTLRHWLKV
The target of the next test is T3, 5-HT1A receptor (Homo sapiens, UniProt P08908).
T3 construct: expressed in transfected cells; host or cells: HEK 293 (membrane preparation)
T3 sequence (P08908 1-422): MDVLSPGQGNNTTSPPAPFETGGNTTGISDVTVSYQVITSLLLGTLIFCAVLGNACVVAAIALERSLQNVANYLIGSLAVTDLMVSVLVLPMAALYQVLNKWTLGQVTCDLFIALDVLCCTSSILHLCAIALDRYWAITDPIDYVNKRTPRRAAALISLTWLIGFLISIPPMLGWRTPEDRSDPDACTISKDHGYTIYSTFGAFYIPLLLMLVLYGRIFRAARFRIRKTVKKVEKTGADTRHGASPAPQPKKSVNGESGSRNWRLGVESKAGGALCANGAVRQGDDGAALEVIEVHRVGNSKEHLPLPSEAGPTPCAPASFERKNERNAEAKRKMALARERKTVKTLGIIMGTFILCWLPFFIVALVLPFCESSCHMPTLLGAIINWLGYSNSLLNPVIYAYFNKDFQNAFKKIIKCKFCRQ
The experiment in a line: Radioligand binding, 5-HT1A receptor ([3H]8-OH-DPAT).

For another test, the target named is hNET (Homo sapiens, UniProt P23975). The experiment in a line: Radioligand binding, NET (N-methyl-[3H]nisoxetine). Details: expressed in transfected cells; host or cells: HEK 293 (membrane preparation).
Sequence of hNET (P23975 whole entry): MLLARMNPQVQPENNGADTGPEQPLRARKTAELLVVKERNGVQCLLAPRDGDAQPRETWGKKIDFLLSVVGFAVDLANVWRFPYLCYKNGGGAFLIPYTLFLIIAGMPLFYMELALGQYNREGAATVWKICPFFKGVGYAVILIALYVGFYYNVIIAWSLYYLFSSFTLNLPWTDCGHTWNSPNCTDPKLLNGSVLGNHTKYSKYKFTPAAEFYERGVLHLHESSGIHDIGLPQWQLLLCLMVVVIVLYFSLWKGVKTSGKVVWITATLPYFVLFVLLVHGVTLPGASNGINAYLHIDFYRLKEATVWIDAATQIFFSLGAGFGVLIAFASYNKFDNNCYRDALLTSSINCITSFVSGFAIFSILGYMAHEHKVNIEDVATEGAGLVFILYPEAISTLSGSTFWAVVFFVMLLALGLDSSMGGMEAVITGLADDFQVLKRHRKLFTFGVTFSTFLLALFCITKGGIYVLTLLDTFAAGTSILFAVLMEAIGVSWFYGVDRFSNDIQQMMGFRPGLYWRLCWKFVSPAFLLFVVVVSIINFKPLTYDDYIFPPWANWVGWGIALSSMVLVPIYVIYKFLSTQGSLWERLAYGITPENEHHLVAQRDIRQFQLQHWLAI
The next test concerns the target T4, human 5-HT2B receptor (Homo sapiens, UniProt P41595).
T4 construct: expressed in transfected cells; host or cells: HEK 293
The experiment in a line: Activity at the 5-HT2B receptor (FLIPR calcium, HEK 293 cells). The class given is cell-based. The conditions noted are these: for Emax: HEK293, relative to 5-HT = 100%, read-out: h5-HT2B Activation efficacy max ± SD. The method, then: Activity at the 5-HT2B receptor was examined as previously described ([Luethi et al., 2018]). In summary, HEK 293 cells expressing the human 5-HT2B receptor were seeded at a density of 50,000 cells per well in 96-well poly-D-lysine-coated plates overnight at 37°C. The cells were then incubated in growth medium consisting of high glucose Dulbecco’s modified Eagle’s medium (DMEM) (Invitrogen, Zug, Switzerland), 10% fetal calf serum (non-dialyzed, heat-inactivated), 250 mg/l Geneticin and 10 ml/l PenStrep (Gibco), overnight at 37°C. After removal of the growth medium via snap inversion, calcium indicator Fluo-4-solution (100 µl) was injected into each well (Molecular Probes, Eugene, OR, USA) and incubated for 45 min at 31°C. Afterwards, the Fluo-4 solution was removed (snap inversion) and a further 100 µl of the Fluo-4 solution was added and incubated (45 min, 31°C). Thereafter, using the EMBLA cell washer, the cells were washed just before testing with HBSS and 20 mM HEPES and exposed to 100 µl of assay buffer. The well plate was positioned in the FLIPR and while online, 25 µl of the test compounds diluted in assay buffer were added. Concentration-response curves were calculated using nonlinear regression, and EC50 values were obtained. The maximal activity at the receptors was calculated relative to 5-HT activity which was defined as 100%.

Sequence of hSERT (P31645 whole entry): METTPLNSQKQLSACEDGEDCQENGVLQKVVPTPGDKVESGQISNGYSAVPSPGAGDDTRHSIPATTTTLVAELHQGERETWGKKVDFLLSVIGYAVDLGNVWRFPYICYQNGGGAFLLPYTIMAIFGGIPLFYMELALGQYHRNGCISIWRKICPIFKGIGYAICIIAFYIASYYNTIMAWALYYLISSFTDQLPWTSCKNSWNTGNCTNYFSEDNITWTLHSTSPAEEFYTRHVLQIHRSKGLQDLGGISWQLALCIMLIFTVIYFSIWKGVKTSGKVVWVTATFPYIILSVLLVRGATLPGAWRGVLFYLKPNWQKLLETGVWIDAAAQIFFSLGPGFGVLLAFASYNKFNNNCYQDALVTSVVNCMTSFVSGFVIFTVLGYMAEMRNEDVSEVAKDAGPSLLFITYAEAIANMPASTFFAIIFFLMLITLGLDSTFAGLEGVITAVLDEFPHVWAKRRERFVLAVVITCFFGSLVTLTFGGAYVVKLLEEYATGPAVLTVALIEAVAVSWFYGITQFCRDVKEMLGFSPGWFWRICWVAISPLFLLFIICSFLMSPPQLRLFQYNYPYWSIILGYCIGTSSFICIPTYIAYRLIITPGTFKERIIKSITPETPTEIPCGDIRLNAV
T4 sequence (P41595 whole entry): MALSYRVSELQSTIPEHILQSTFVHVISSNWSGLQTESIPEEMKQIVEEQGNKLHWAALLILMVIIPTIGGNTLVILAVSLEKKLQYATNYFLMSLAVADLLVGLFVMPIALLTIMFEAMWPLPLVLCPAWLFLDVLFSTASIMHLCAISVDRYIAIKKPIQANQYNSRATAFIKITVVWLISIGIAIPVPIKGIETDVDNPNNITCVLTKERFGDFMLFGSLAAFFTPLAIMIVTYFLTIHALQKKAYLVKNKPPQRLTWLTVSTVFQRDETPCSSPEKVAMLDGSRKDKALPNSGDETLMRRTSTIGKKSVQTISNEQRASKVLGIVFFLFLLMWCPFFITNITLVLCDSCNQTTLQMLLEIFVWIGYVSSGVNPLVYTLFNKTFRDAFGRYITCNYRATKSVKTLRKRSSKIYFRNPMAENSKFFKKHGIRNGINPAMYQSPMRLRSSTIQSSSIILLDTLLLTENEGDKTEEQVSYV
T2 sequence (Q923Y8 whole entry): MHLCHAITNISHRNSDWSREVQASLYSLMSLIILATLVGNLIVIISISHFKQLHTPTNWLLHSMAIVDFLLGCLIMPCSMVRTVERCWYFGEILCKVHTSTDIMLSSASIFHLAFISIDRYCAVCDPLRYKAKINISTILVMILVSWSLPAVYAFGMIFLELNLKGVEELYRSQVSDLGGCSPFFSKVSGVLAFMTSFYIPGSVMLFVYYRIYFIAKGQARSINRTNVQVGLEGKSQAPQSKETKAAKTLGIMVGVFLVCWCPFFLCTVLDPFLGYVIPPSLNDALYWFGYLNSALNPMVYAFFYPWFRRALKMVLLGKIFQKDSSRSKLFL

With `COc1cc(OCCF)c(OC)cc1CC(C)N` (stereo not drawn) [MFEM, 2,5-dimethoxy-4-(2-fluoroethoxy)amphetamine], the inhibition constant (Ki) was above 8.6 µM on hSERT; above 4.8 µM at dopaminergic D2 receptor; above 4.9 µM on mouse TAAR1; above 8.7 µM on hDAT; above 5.6 µM at 5-HT1A receptor; above 9.7 µM at hNET. For the same compound, on human 5-HT2B receptor, the 50% effective concentration (EC50) was 0.27 ± 0.21 µM. For the same compound, the Emax on human 5-HT2B receptor was 41 ± 22%.

`C=CCOc1cc(OC)c(CCN)cc1OC` [2C-O-16, 4-allyloxy-2,5-dimethoxyphenethylamine]: the Ki at hSERT was above 8.6 µM; on dopaminergic D2 receptor, above 4.8 µM; at mouse TAAR1, 2.5 ± 1 µM; on hDAT, above 8.7 µM; at 5-HT1A receptor, 4.5 ± 0.5 µM; at hNET, above 9.7 µM. Besides, the EC50 at human 5-HT2B receptor was 0.12 ± 0.07 µM. For the same compound, the Emax on human 5-HT2B receptor turned out to be 42 ± 13%.

With `COc1cc(OCC(F)F)c(OC)cc1CCN` [2C-O-21.5, 4-(2,2-difluoroethoxy)-2,5-dimethoxyphenethylamine], the Ki is above 8.6 µM at hSERT; above 4.8 µM at dopaminergic D2 receptor; above 4.8 µM at mouse TAAR1; above 8.7 µM at hDAT; 2.9 ± 0.2 µM at 5-HT1A receptor; above 9.7 µM on hNET. Besides, the EC50 on human 5-HT2B receptor worked out at 0.48 ± 0.26 µM. Further, at human 5-HT2B receptor, the “Increase in 5-HT2B activation potency compared to 2C-O-21 (9)” value is reported as 2 fold. In addition, the Emax on human 5-HT2B receptor came out at 28 ± 23%.

Turning to `COc1cc(OC(C)C)c(OC)cc1CC(C)N` (stereo not drawn) [MIPM, 2,5-dimethoxy-4-isopropoxyamphetamine], the Ki on hSERT is above 8.6 µM; on dopaminergic D2 receptor it was above 4.8 µM; on mouse TAAR1, above 4.8 µM; on hDAT, above 8.7 µM; on 5-HT1A receptor, above 5.6 µM; on hNET it was above 9.7 µM. The EC50 at human 5-HT2B receptor came to 0.18 ± 0.12 µM. Also, at human 5-HT2B receptor, the “Higher 5-HT2B activation potency compared to TMA-2 (19)” value is 2 fold. For the same compound, at human 5-HT2B receptor, the Emax turned out to be 20 ± 14%.

`C=C(C)COc1cc(OC)c(CC(C)N)cc1OC` (stereo not drawn) [MMALM, 2,5-dimethoxy-4-methallyloxyamphetamine]: the inhibitory constant (Ki) on hSERT is above 8.6 µM; on dopaminergic D2 receptor, above 4.8 µM; at mouse TAAR1 it was 1.7 ± 0.9 µM; on hDAT it was above 8.7 µM; on hNET it was above 9.7 µM. Also, the half-maximal effective concentration (EC50) on human 5-HT2B receptor amounted to 0.029 ± 0.013 µM. Moreover, the “Higher 5-HT2B activation potency compared to TMA-2 (19)” value on human 5-HT2B receptor worked out at 9 fold. The Emax at human 5-HT2B receptor lay in the range of 85 to 101%.

In the case of `COc1cc(OCCF)c(OC)cc1CCN` [2C-O-21, 2,5-dimethoxy-4-(2-fluoroethoxy)phenethylamine], the inhibitory constant (Ki) at hSERT is above 8.6 µM; on dopaminergic D2 receptor, above 4.8 µM; on mouse TAAR1, above 4.9 µM; on hDAT, above 8.7 µM; at 5-HT1A receptor it was 5.5 µM; at hNET it was above 9.7 µM. Moreover, the EC50 on human 5-HT2B receptor worked out at 0.9 ± 0.45 µM. Also, the Emax at human 5-HT2B receptor amounted to 39 ± 26%.

Regarding `CCOc1cc(OC)c(CCN)cc1OC` [2C-O-2, 2,5-dimethoxy-4-ethoxyphenethylamine], the Ki on hSERT was above 8.6 µM; at dopaminergic D2 receptor, above 4.8 µM; at mouse TAAR1, 4 ± 1.1 µM; on hDAT it was above 8.7 µM; at 5-HT1A receptor, 3.6 ± 0.4 µM; at hNET, above 9.7 µM. Moreover, the EC50 on human 5-HT2B receptor came to 0.049 ± 0.044 µM. Besides, the Emax at human 5-HT2B receptor was 85 to 101%.

As for `COc1cc(OCc2ccccc2)c(OC)cc1CCN` [2C-O-27, 4-benzyloxy-2,5-dimethoxyphenethylamine], the Ki was above 8.6 µM at hSERT; above 4.8 µM on dopaminergic D2 receptor; 0.65 ± 0.19 µM at mouse TAAR1; 6.1 ± 0.4 µM on hDAT; 2.7 ± 0.1 µM on 5-HT1A receptor; above 9.7 µM on hNET. The EC50 on human 5-HT2B receptor was 0.48 ± 0.19 µM. On human 5-HT2B receptor, the Emax amounted to 39 ± 16%.

For `C=C(C)COc1cc(OC)c(CCN)cc1OC` [2C-O-3, 2,5-dimethoxy-4-methallyloxyphenethylamine], the Ki on hSERT is above 8.6 µM; at dopaminergic D2 receptor it was above 4.8 µM; on mouse TAAR1, 1.1 ± 0.4 µM; on hDAT it was above 8.7 µM; at 5-HT1A receptor it was 2.7 ± 0.2 µM; at hNET, above 9.7 µM. Further, at human 5-HT2B receptor, the EC50 came out at 0.068 ± 0.021 µM. For the same compound, at human 5-HT2B receptor, the Emax was 50 ± 22%.

As for `C=CCOc1cc(OC)c(CC(C)N)cc1OC` (stereo not drawn) [MALM, 4-allyloxy-2,5-dimethoxyamphetamine], the Ki on hSERT is above 8.6 µM; at dopaminergic D2 receptor, above 4.4 µM; on mouse TAAR1, 2 ± 0.4 µM; at hDAT it was above 8.7 µM; at 5-HT1A receptor it was above 5.6 µM; at hNET it was above 9.7 µM. The EC50 on human 5-HT2B receptor came to 0.0095 ± 0.0033 µM. Also, the “Higher 5-HT2B activation potency compared to TMA-2 (19)” value on human 5-HT2B receptor was 28 fold. For the same compound, on human 5-HT2B receptor, the Emax lay in the range of 85 to 101%.

In the case of `COc1cc(OCC(F)F)c(OC)cc1CC(C)N` (stereo not drawn) [MDFEM, 4-(2,2-difluoroethoxy)-2,5-dimethoxyamphetamine], the Ki at hSERT is above 8.6 µM; at dopaminergic D2 receptor it was above 4.8 µM; on mouse TAAR1, above 4.8 µM; at hDAT, above 8.7 µM; at 5-HT1A receptor it was above 5.6 µM; on hNET, above 9.7 µM. On human 5-HT2B receptor, the EC50 stood at 0.13 ± 0.08 µM. The Emax at human 5-HT2B receptor amounted to 21 ± 8%.

Regarding `COc1cc(OCC(F)(F)F)c(OC)cc1CC(C)N` (stereo not drawn) [MTFEM, 2,5-dimethoxy-4-(2,2,2-trifluoroethoxy)amphetamine], the Ki is above 8.6 µM at hSERT; above 4.8 µM at dopaminergic D2 receptor; 4.5 ± 0.5 µM at mouse TAAR1; above 8.7 µM on hDAT; above 5.6 µM on 5-HT1A receptor; above 9.7 µM on hNET. For the same compound, the EC50 at human 5-HT2B receptor was 0.2 ± 0.03 µM. Further, the Emax on human 5-HT2B receptor came out at 5%.

For `COc1cc(OCC(F)(F)F)c(OC)cc1CCN` [2C-O-22, 2,5-dimethoxy-4-(2,2,2-trifluoroethoxy)phenethylamine], the Ki at hSERT was above 8.6 µM; at dopaminergic D2 receptor, above 4.8 µM; on mouse TAAR1 it was 2.5 ± 0.4 µM; at hDAT, above 8.7 µM; on 5-HT1A receptor it was 3.3 ± 0.2 µM; at hNET, above 9.7 µM. The EC50 at human 5-HT2B receptor was determined as 0.25 ± 0.01 µM. The “Increase in 5-HT2B activation potency compared to 2C-O-21 (9)” value at human 5-HT2B receptor came out at 4 fold. The Emax on human 5-HT2B receptor worked out at 28 ± 20%.

Broadly, the Ki is the dissociation constant of the complex between target and ligand, obtained from inhibition or displacement. A high value points to a looser hold on the target. The term EC50 denotes the midpoint of the concentration-response curve.
